From patent US8258114B2, “Modulation of glucose-6-phosphatase translocase expression” (Isis Pharmaceuticals, Inc., priority 2004, dated 2012)
Oligonucleotides are written 5' to 3', each unit as a sugar letter and its base; * is a phosphorothioate linkage, no mark a phosphodiester; rarer units and linkages stand in square brackets, end groups in braces. Plain capitals give the bases only. e = 2'-O-(2-methoxyethyl) (MOE); [5mC] = 5-methylcytosine; d = 2'-deoxy (DNA)

Legend:
Format in all cases: cell-based
[1] = system: human glucose-6-phosphatase translocase mRNA; experiment: Antisense inhibition of human glucose-6-phosphatase translocase mRNA in T-24 cells, real-time PCR (Table 4); settings: 100 nM oligonucleotide, LIPOFECTIN, mRNA by real-time PCR
Experimental: The transitional cell bladder carcinoma cell line T-24 was obtained from the American Type Culture Collection (ATCC) (Manassas, Va.). T-24 cells were routinely cultured in complete McCoy's 5A basal media (Invitrogen Life Technologies, Carlsbad, Calif.) supplemented with 10% fetal bovine serum (Invitrogen Life Technologies, Carlsbad, Calif.). Cells were routinely passaged by trypsinization and dilution when they reached approximately 90% confluence. Cells were seeded into 96-well plates (Falcon-Primaria #3872) at a density of approximately 4000-6000 cells/well for use in oligomeric compound transfection experiments. When cells reached 65-75% confluency, they were treated with oligonucleotide. […] This transfection mixture was incubated at room temperature for approximately 0.5 hours. For cells grown in 96-well plates, wells were washed once with 100 μL OPTI-MEMTM-1 and then treated with 130 μL of the transfection mixture. Cells grown in 24-well plates or other standard tissue culture plates are treated similarly, using appropriate volumes of medium and oligonucleotide. Cells are treated and data are obtained in duplicate or triplicate. After approximately 4-7 hours of treatment at 37° C., the medium containing the transfection mixture was replaced with fresh culture medium. Cells were harvested 16-24 hours after oligonucleotide treatment. […] Prior to quantitative PCR analysis, primer-probe sets specific to the target gene being measured were evaluated for their ability to be “multiplexed” with a GAPDH amplification reaction. After isolation the RNA is subjected to sequential reverse transcriptase (RT) reaction and real-time PCR, both of which are performed in the same well. RT and PCR reagents were obtained from Invitrogen Life Technologies (Carlsbad, Calif.). […] The RT reaction was carried out by incubation for 30 minutes at 48° C. Following a 10 minute incubation at 95° C. to activate the PLATINUM® Taq, 40 cycles of a two-step PCR protocol were carried out: 95° C. for 15 seconds (denaturation) followed by 60° C. for 1.5 minutes (annealing/extension). Gene target quantities obtained by RT, real-time PCR were normalized using either the expression level of GAPDH, a gene whose expression is constant, or by quantifying total RNA using RiboGreenTM (Molecular Probes, Inc. Eugene, Oreg.). GAPDH expression was quantified by RT, real-time PCR, by being run simultaneously with the target, multiplexing, or separately. Total RNA was quantified using RiboGreenTM RNA quantification reagent (Molecular Probes, Inc. Eugene, Oreg.). A series of oligomeric compounds was designed to target different regions of human glucose-6-phosphatase translocase, using published sequences cited in Table 1. All compounds in Table 4 are chimeric oligonucleotides (“gapmers”) 20 nucleotides in length, composed of a central “gap” region consisting of 10 2'-deoxynucleotides, which is flanked on both sides ([NT]) by five-nucleotide “wings”. The wings are composed of 2'-O-(2-methoxyethyl) nucleotides, also known as 2'-MOE nucleotides. The internucleoside (backbone) linkages are phosphorothioate throughout the oligonucleotide. All cytidine residues are 5-methylcytidines. The compounds were analyzed for their effect on gene target mRNA levels by quantitative real-time PCR as described in other examples herein, using the following primer-probe set designed to hybridize to human glucose-6-phosphatase translocase: Forward primer: [NT] (incorporated herein as SEQ ID NO: 24) Reverse primer: [NT] (incorporated herein as SEQ ID NO: 25) And the PCR probe was: […] (incorporated herein as SEQ ID NO: 26), where FAM is the fluorescent dye and TAMRA is the quencher dye. Data are from experiments in which T-24 cells were treated with 100 nM of the antisense oligonucleotides of the present invention using LIPOFECTINTM. A reduction in expression is expressed as percent inhibition in Table 4. If present, “N.D.” indicates “not determined”. The control oligomeric compound used was SEQ ID NO: 11. […]

[2] = system: human glucose-6-phosphatase translocase mRNA; experiment: Antisense inhibition of human glucose-6-phosphatase translocase mRNA in HepG2 cells (Table 11); set-up: concentration or dose not given beside the values; settings: LIPOFECTIN, mRNA by real-time PCR
Experimental: The human hepatoblastoma cell line HepG2 was obtained from the American Type Culture Collection (Manassas, Va.). HepG2 cells were routinely cultured in Eagle's MEM supplemented with 10% fetal bovine serum, 1 mM non-essential amino acids, and 1 mM sodium pyruvate (Invitrogen Life Technologies, Carlsbad, Calif.). Cells were routinely passaged by trypsinization and dilution when they reached approximately 90% confluence. Multiwell culture plates are prepared for cell culture by coating with a 1:100 dilution of type 1 rat tail collagen (BD Biosciences, Bedford, Mass.) in phosphate-buffered saline. The collagen-containing plates were incubated at 37° C. for approximately 1 hour, after which the collagen was removed and the wells were washed twice with phosphate-buffered saline. Cells were seeded into 96-well plates (Falcon-Primaria #353872, BD Biosciences, Bedford, Mass.) at a density of approximately 8,000 cells/well for use in oligomeric compound transfection experiments.
When cells reached 65-75% confluency, they were treated with oligonucleotide. Oligonucleotide was mixed with LIPOFECTIN™ Invitrogen Life Technologies, Carlsbad, Calif.) in Opti-MEM™-1 reduced serum medium (Invitrogen Life Technologies, Carlsbad, Calif.) to achieve the desired concentration of oligonucleotide and a LIPOFECTIN™ concentration of 2.5 or 3 μg/mL per 100 nM oligonucleotide. This transfection mixture was incubated at room temperature for approximately 0.5 hours. For cells grown in 96-well plates, wells were washed once with 100 μL OPTI-MEM™-1 and then treated with 130 μL of the transfection mixture. Cells grown in 24-well plates or other standard tissue culture plates are treated similarly, using appropriate volumes of medium and oligonucleotide. Cells are treated and data are obtained in duplicate or triplicate. After approximately 4-7 hours of treatment at 37° C., the medium containing the transfection mixture was replaced with fresh culture medium. Cells were harvested 16-24 hours after oligonucleotide treatment.
Quantitation of glucose 6-phosphatase translocase mRNA levels was accomplished by real-time quantitative PCR using the ABI PRISM™ 7600, 7700, or 7900 Sequence Detection System (PE-Applied Biosystems, Foster City, Calif.) according to manufacturer's instructions.
Prior to quantitative PCR analysis, primer-probe sets specific to the target gene being measured were evaluated for their ability to be “multiplexed” with a GAPDH amplification reaction. After isolation the RNA is subjected to sequential reverse transcriptase (RT) reaction and real-time PCR, both of which are performed in the same well. RT and PCR reagents were obtained from Invitrogen Life Technologies (Carlsbad, Calif.). […] The RT reaction was carried out by incubation for 30 minutes at 48° C. Following a 10 minute incubation at 95° C. to activate the PLATINUM® Taq, 40 cycles of a two-step PCR protocol were carried out: 95° C. for 15 seconds (denaturation) followed by 60° C. for 1.5 minutes (annealing/extension).
Gene target quantities obtained by RT, real-time PCR were normalized using either the expression level of GAPDH, a gene whose expression is constant, or by quantifying total RNA using RiboGreen™ (Molecular Probes, Inc. Eugene, Oreg.). GAPDH expression was quantified by RT, real-time PCR, by being run simultaneously with the target, multiplexing, or separately. Total RNA was quantified using RiboGreen™ RNA quantification reagent (Molecular Probes, Inc. Eugene, Oreg.).
A series of oligomeric compounds was designed to target different regions of human glucose-6-phosphatase translocase, using published sequences cited in Table 1. All compounds in Table 4 are chimeric oligonucleotides (“gapmers”) 20 nucleotides in length, composed of a central “gap” region consisting of 10 2′-deoxynucleotides, which is flanked on both sides (5′ and 3′) by five-nucleotide “wings”. The wings are composed of 2′-O-(2-methoxyethyl) nucleotides, also known as 2′-MOE nucleotides. […]

[3] = system: mouse glucose-6-phosphatase translocase mRNA; experiment: Antisense inhibition of mouse glucose-6-phosphatase translocase mRNA in primary mouse hepatocytes, 150 nM, LIPOFECTIN (Table 22); settings: real-time PCR
In short: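 Primary CD-1 mouse hepatocytes at 65-75% confluency transfected ~4-7 h at 37° C with 150 nM 5-10-5 2′-MOE gapmer phosphorothioate oligonucleotides plus LIPOFECTIN (2.5 or 3 μg/mL per 100 nM). Harvested 16-24 h post-treatment; mRNA by real-time RT-PCR, normalized to GAPDH or RiboGreen total RNA, expressed as percent inhibition.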

Sequence	% Inhib [1] [%]	% Inhib [2] [%]	% Inhib of mouse glucose-6-phosphatase translocase mRNA levels [3] [%]
AACCACACACAGTGCCCCAG (eA*eA*e[5mC]*e[5mC]*eA*d[5mC]*dA*d[5mC]*dA*d[5mC]*dA*dG*dT*dG*d[5mC]*e[5mC]*e[5mC]*e[5mC]*eA*eG; antisense) [ISIS 194853]	35		
AGATAGGGCCAGCGTGCTGC (eA*eG*eA*eT*eA*dG*dG*dG*d[5mC]*d[5mC]*dA*dG*d[5mC]*dG*dT*eG*e[5mC]*eT*eG*e[5mC]; antisense) [ISIS 194832]	55		
AGGCAAAGAATATGTTGACC (eA*eG*eG*e[5mC]*eA*dA*dA*dG*dA*dA*dT*dA*dT*dG*dT*eT*eG*eA*e[5mC]*e[5mC]; antisense) [ISIS 194830]	68		
ATGGCGAGGGTTCCCGTAGT (eA*eT*eG*eG*e[5mC]*dG*dA*dG*dG*dG*dT*dT*d[5mC]*d[5mC]*d[5mC]*eG*eT*eA*eG*eT; antisense) [ISIS 194831]	54		
CACCTATATCCAACTGCGCC (e[5mC]*eA*e[5mC]*e[5mC]*eT*dA*dT*dA*dT*d[5mC]*d[5mC]*dA*dA*d[5mC]*dT*eG*e[5mC]*eG*e[5mC]*e[5mC]; antisense) [ISIS 194837]	81		
CAGGGCACTCATGTAGGAGC (e[5mC]*eA*eG*eG*eG*d[5mC]*dA*d[5mC]*dT*d[5mC]*dA*dT*dG*dT*dA*eG*eG*eA*eG*e[5mC]; antisense) [ISIS 194840]	51		
CAGTTCCCAGATCTGCTGAG (e[5mC]*eA*eG*eT*eT*d[5mC]*d[5mC]*d[5mC]*dA*dG*dA*dT*d[5mC]*dT*dG*e[5mC]*eT*eG*eA*eG; antisense) [ISIS 194851]	73		
CAGTTCCTGCTTGCCGCTCT (e[5mC]*eA*eG*eT*eT*d[5mC]*d[5mC]*dT*dG*d[5mC]*dT*dT*dG*d[5mC]*d[5mC]*eG*e[5mC]*eT*e[5mC]*eT; antisense) [ISIS 194856]	56		
CATTAGTGCCCTGCAGCTGC (e[5mC]*eA*eT*eT*eA*dG*dT*dG*d[5mC]*d[5mC]*d[5mC]*dT*dG*d[5mC]*dA*eG*e[5mC]*eT*eG*e[5mC]; antisense) [ISIS 194828]	73		
CCAGGCAGGCCCCTCCTTTT (e[5mC]*e[5mC]*eA*eG*eG*d[5mC]*dA*dG*dG*d[5mC]*d[5mC]*d[5mC]*d[5mC]*dT*d[5mC]*e[5mC]*eT*eT*eT*eT; antisense) [ISIS 194858]	71		
CCTGCTTGCCGCTCTCACAG (e[5mC]*e[5mC]*eT*eG*e[5mC]*dT*dT*dG*d[5mC]*d[5mC]*dG*d[5mC]*dT*d[5mC]*dT*e[5mC]*eA*e[5mC]*eA*eG; antisense) [ISIS 194844]	73		
CTGTAGCCCCCAAACATGGC (e[5mC]*eT*eG*eT*eA*dG*d[5mC]*d[5mC]*d[5mC]*d[5mC]*d[5mC]*dA*dA*dA*d[5mC]*eA*eT*eG*eG*e[5mC]; antisense) [ISIS 194835]	59		
CTTGGCAATGGTGCTGAAGG (e[5mC]*eT*eT*eG*eG*d[5mC]*dA*dA*dT*dG*dG*dT*dG*d[5mC]*dT*eG*eA*eA*eG*eG; antisense) [ISIS 194847]	66		
GATAGCCTCACTTCAGGTGG (eG*eA*eT*eA*eG*d[5mC]*d[5mC]*dT*d[5mC]*dA*d[5mC]*dT*dT*d[5mC]*dA*eG*eG*eT*eG*eG; antisense) [ISIS 194836]	58		
GGAGACAACCACACACAGTG (eG*eG*eA*eG*eA*d[5mC]*dA*dA*d[5mC]*d[5mC]*dA*d[5mC]*dA*d[5mC]*dA*e[5mC]*eA*eG*eT*eG; antisense) [ISIS 145671]		39	25
GGATAAGGAAGAACTGGCCC (eG*eG*eA*eT*eA*dA*dG*dG*dA*dA*dG*dA*dA*d[5mC]*dT*eG*eG*e[5mC]*e[5mC]*e[5mC]; antisense) [ISIS 145686]		32	26
GGCATGACAAAGGAGAAGGT (eG*eG*e[5mC]*eA*eT*dG*dA*d[5mC]*dA*dA*dA*dG*dG*dA*dG*eA*eA*eG*eG*eT; antisense) [ISIS 145657]		43	45
GGTTCATTGTGGATGAGCAG (eG*eG*eT*eT*e[5mC]*dA*dT*dT*dG*dT*dG*dG*dA*dT*dG*eA*eG*e[5mC]*eA*eG; antisense) [ISIS 145673]		47	4
TGGGCTGCCATGGTAGAAAA (eT*eG*eG*eG*e[5mC]*dT*dG*d[5mC]*d[5mC]*dA*dT*dG*dG*dT*dA*eG*eA*eA*eA*eA; antisense) [ISIS 145652]		50	36
TTGGCAATGGTGCTGAAGGG (eT*eT*eG*eG*e[5mC]*dA*dA*dT*dG*dG*dT*dG*d[5mC]*dT*dG*eA*eA*eG*eG*eG; antisense) [ISIS 145700]		24	1
